We go through 34 compounds from patent US11524966B1 (Valo Early Discovery, Inc., priority 2017, dated 2022).

Molecules are shown by their SMILES.

The first experiment has as its target T1, USP25 (USP25-His6, Boston Biochem E-546) (Homo sapiens, UniProt Q9UHP3).
T1 construct: His6; purchased Boston Biochem E-546
T1 sequence (Q9UHP3 1-1055): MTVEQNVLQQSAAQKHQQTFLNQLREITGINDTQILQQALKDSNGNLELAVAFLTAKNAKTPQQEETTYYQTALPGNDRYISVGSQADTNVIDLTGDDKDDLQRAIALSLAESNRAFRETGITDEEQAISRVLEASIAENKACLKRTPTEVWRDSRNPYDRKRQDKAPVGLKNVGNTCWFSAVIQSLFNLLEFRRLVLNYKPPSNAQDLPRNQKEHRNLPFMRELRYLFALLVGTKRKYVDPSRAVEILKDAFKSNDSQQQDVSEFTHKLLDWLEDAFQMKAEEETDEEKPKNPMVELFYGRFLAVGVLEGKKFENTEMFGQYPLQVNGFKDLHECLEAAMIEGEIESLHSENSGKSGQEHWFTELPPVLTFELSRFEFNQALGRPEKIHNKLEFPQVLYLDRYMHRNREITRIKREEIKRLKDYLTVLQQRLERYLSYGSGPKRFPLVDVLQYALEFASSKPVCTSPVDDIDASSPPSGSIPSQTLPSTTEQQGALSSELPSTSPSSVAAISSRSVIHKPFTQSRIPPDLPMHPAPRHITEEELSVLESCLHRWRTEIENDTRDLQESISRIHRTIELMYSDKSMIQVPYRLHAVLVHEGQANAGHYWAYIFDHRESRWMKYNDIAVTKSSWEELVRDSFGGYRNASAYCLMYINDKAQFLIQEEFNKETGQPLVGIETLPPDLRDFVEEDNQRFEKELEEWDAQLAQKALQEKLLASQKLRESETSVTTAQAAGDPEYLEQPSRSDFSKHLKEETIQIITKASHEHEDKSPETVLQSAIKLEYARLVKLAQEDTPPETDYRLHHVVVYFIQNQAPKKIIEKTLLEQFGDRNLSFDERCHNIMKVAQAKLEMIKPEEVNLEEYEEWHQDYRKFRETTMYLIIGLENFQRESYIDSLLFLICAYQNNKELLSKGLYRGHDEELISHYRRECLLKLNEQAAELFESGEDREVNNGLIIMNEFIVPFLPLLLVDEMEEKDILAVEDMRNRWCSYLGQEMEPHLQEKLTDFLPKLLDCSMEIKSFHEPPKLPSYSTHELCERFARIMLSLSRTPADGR
Description: Ubiquitin-Rhodamine 110 Assay for USP25 Activity, Example A-2. The class given is biochemical. Particulars: Ubiquitin-Rhodamine 110 assay, Example A-2; read-out: USP25 A-2 IC50 range. The essentials: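 Cleavage of ubiquitin-rhodamine 110 (25 nM, well below Km) by His-tagged USP25 at 75 pM is measured fluorimetrically after 45 min at room temperature and acid quench. Inhibitors are preincubated with enzyme for 30 minutes. IC50 values come from four-parameter logistic curve fitting.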
The IC50 is the concentration that inhibits the measured activity by half. As to `Cc1cnc2c(N)c(C(=O)N[C@@H]3CCc4cc(N5CC6CCC(C5)N6)ccc4C3)sc2n1` (single isomer, unassigned) [Example 11-8], the IC50 was more than 2000 nM.

With `Cc1ccc2c(N)c(C(=O)N[C@@H]3CCc4cc(N5CCNCC5)cc(F)c4C3)sc2n1` (single isomer, unassigned) [Example 11-12], the 50% inhibitory concentration (IC50) was 200 to 2000 nM.

With `Cc1ccc2c(N)c(C(=O)N[C@@H]3COc4cc(N5CCNCC5)cc(F)c4C3)sc2n1` [Example 10-5, (S)-3-amino-N-(5-fluoro-7-(piperazin-1-yl)chroman-3-yl)-6-methylthieno[2,3-b]pyridine-2-carboxamide], the 50% inhibitory concentration (IC50) was more than 2000 nM.

`[2H]C1([2H])NC([2H])([2H])C([2H])([2H])N(c2cc(F)c3c(c2)OC[C@H](NC(=O)c2sc4nc(C)ccc4c2N)C3)C1([2H])[2H]` [Example 10-4, (R)-3-amino-N-(5-fluoro-7-(piperazin-l-yl-2,2,3,3,5,5,6,6-d8)chroman-3-yl)-6-methylthieno[2,3-b]pyridine-2-carboxamide]: the 50% inhibitory concentration (IC50) was 50 to 200 nM.

For the compound `Cc1nc2sc(C(=O)N[C@H]3CCc4cc(N5CC6CCC(C5)N6)ccc4C3)c(N)c2cc1F` (single isomer, unassigned) [Example 11-3], the IC50 lay in the range of 200 to 2000 nM.

For the compound `Cc1cnc2c(N)c(C(=O)N[C@H]3COc4cc(N5CCNCC5)cc(F)c4C3)sc2n1` [Example 10-10, (R)-7-amino-N-(5-fluoro-7-(piperazin-1-yl)chroman-3-yl)-3-methylthieno[2,3-b]pyrazine-6-carboxamide], the IC50 was 50 to 200 nM.

With `Cc1cnc2c(N)c(C(=O)N[C@@H]3CCc4cc(N5CCNC[C@@H](O)C5)ccc4C3)sc2n1` (single isomer, unassigned) [Example 7-5], the half-inhibitory concentration (IC50) is 200 to 2000 nM.

On to `COc1ccc2c(N)c(C(=O)N[C@H]3COc4cc(N5CCNCC5)cc(F)c4C3)sc2n1` [Example 10-11, (R)-3-amino-N-(5-fluoro-7-(piperazin-1-yl)chroman-3-yl)-6-methoxythieno[2,3-b]pyridine-2-carboxamide], for which the half-maximal inhibitory concentration (IC50) lay in the range of 50 to 200 nM.

Consider `CCn1ccc2cc(C(=O)N[C@H]3CCc4cc(N5CC6CCC(C5)N6)ccc4C3)nnc21` (single isomer, unassigned) [Example 11-24], for which the 50% inhibitory concentration (IC50) was more than 2000 nM.

Consider `Cc1ccc2c(N)c(C(=O)N[C@H]3COc4cc(C5(F)CCNCC5)ccc4C3)sc2n1` [Example 8-1, (R)-3-Amino-N-(7-(4-fluoropiperidin-4-yl)chroman-3-yl)-6-methylthieno[2,3-b]pyridine-2-carboxamide], for which the IC50 lay within 50 to 200 nM.

In the case of `Cc1cc(C(F)(F)F)c2c(N)c(C(=O)N[C@H]3COc4cc(N5CCNCC5)cc(F)c4C3)sc2n1` [Example 10-14, (R)-3-amino-N-(5-fluoro-7-(piperazin-1-yl)chroman-3-yl)-6-methyl-4-(trifluoromethyl)thieno[2,3-b]pyridine-2-carboxamide], the IC50 was 50 to 200 nM.

As for `Cc1cnc2c(N)c(C(=O)N[C@H]3CCc4cc(N5CC6CCC(C5)N6)cc(F)c4C3)sc2n1` (single isomer, unassigned) [Example 11-13], the IC50 was more than 2000 nM.

In the case of `Cc1ccc2c(N)c(C(=O)N[C@H]3CCc4cc(N5CCN[C@@H](CO)C5)ccc4C3)sc2n1` (single isomer, unassigned) [Example 7-9], the half-maximal inhibitory concentration (IC50) was more than 2000 nM.

As to `COc1ccc2c(N)c(C(=O)N[C@H]3CCc4cc(N5CC6CCC(C5)N6)ccc4C3)sc2n1` (single isomer, unassigned) [Example 11-5], the half-maximal inhibitory concentration (IC50) was 200 to 2000 nM.

As to `Cc1ccc2c(N)c(C(=O)N[C@@H]3CCc4cc(N5CCN[C@@H](CO)C5)ccc4C3)sc2n1` (single isomer, unassigned) [Example 7-11], the concentration for half-maximal inhibition (IC50) was in the range of 200 to 2000 nM.

On to `Cc1cnc2c(N)c(C(=O)N[C@H]3CCc4cc(N5CC6CCC(C5)N6)ccc4C3)sc2n1` (single isomer, unassigned) [Example 11-7], for which the 50% inhibitory concentration (IC50) is 200 to 2000 nM.

With `Cc1ccc2c(N)c(C(=O)N[C@H]3COc4cc(N5CC6CNCC(C5)O6)cc(F)c4C3)sc2n1` [Example 10-6, N-((3R)-7-(9-oxa-3,7-diazabicyclo[3.3.1]nonan-3-yl)-5-fluorochroman-3-yl)-3-amino-6-methylthieno[2,3-b]pyridine-2-carboxamide], the IC50 is 50 to 200 nM.

The experiment is the same for the next values; noted with them: Ubiquitin-Rhodamine 110 assay, format Example A-2; read-out: USP25 A-2 IC50 range.
`Cc1ccc2c(N)c(C(=O)N[C@H]3CCc4cc(N5C6CNCC5C6)ccc4C3)sc2n1` (single isomer, unassigned) [Example 11-35]: the half-inhibitory concentration (IC50) was in the range of 200 to 2000 nM.

`Cc1ccc2c(N)c(C(=O)N[C@H]3COc4c(ccc(N5CCNCC5)c4Cl)C3)sc2n1` [Example 13_7, (R)-3-amino-N-(8-chloro-7-(piperazin-1-yl)chroman-3-yl)-6-methylthieno[2,3-b]pyridine-2-carboxamide]: the IC50 is 50 to 200 nM.

Consider `Cc1ccc2c(N)c(C(=O)N[C@H]3CCc4c(ccc(N5CCNCC5)c4F)C3)sc2n1` (single isomer, unassigned) [Example 21-6], for which the IC50 is more than 2000 nM.

For the compound `Cc1nc2sc(C(=O)N[C@@H]3CCc4c(C#N)c(N5CC6CCC(C5)N6)cc(F)c4C3)c(N)c2s1` (single isomer, unassigned) [Example 14-22], the IC50 was more than 2000 nM.

For `Cc1ccc2c(N)c(C(=O)N[C@@H]3COc4c(ccc(N5CCNCC5)c4Cl)C3)sc2n1` [Example 13-8, (S)-3-amino-N-(8-chloro-7-(piperazin-1-yl)chroman-3-yl)-6-methylthieno[2,3-b]pyridine-2-carboxamide], the IC50 is more than 2000 nM.

On to `Cc1ccc2c(N)c(C(=O)N[C@H]3CCc4c(ccc(N5CC6CCC(C5)N6)c4F)C3)sc2n1` (single isomer, unassigned) [Example 21-2], for which the IC50 was 200 to 2000 nM.

As to `CO[C@H]1CN(c2ccc3c(n2)CC[C@H](NC(=O)c2sc4nc(C)cnc4c2N)C3)C[C@@H]1N` (single isomer, unassigned) [Example 23-1], the IC50 was more than 2000 nM.

Consider `Cc1ccc2c(N)c(C(=O)N[C@@H]3COc4cc(N5CCNCC5)c(Cl)cc4C3)sc2n1` (single isomer, unassigned) [Example 13-6], for which the IC50 lay in the range of 50 to 200 nM.

Turning to `Cc1ccc2c(N)c(C(=O)N[C@H]3COc4nc(N5CCNCC5)c(F)cc4C3)sc2n1` [Example 20, (R)-3-Amino-N-(6-fluoro-7-(piperazin-1-yl)-3,4-dihydro-2H-pyrano[2,3-b]pyridin-3-yl)-6-methylthieno[2,3-b]pyridine-2-carboxamide], the 50% inhibitory concentration (IC50) was in the range of 200 to 2000 nM.

In the case of `Cc1ccc2c(N)c(C(=O)N[C@@H]3CCc4cc(N5CC6CCC(C5)N6)c(F)cc4C3)sc2n1` (single isomer, unassigned) [Example 21-3], the IC50 is 50 to 200 nM.

As to `CO[C@H]1CN(c2ccc3c(n2)CC[C@H](NC(=O)c2sc4nc(C)cc(C)c4c2N)C3)C[C@@H]1N` [Example 23-3, 3-amino-N-[(6S)-2-[(3S,4S)-3-amino-4-methoxypyrrolidin-1-yl]-5,6,7,8-tetrahydroquinolin-6-yl]-4,6-dimethylthieno[2,3-b]pyridine-2-carboxamide], the IC50 was more than 2000 nM.

In the case of `Cc1ccc2c(N)c(C(=O)N[C@H]3CCc4cc(N5CCNCC5)c(F)cc4C3)sc2n1` (single isomer, unassigned) [Example 21-8], the half-maximal inhibitory concentration (IC50) is more than 2000 nM.

On to `Cc1ccc2c(N)c(C(=O)N[C@@H]3CCc4c(ccc(N5CC6CCC(C5)N6)c4F)C3)sc2n1` (single isomer, unassigned) [Example 21-1], for which the 50% inhibitory concentration (IC50) is more than 2000 nM.

`Cc1ccc2c(N)c(C(=O)N[C@@H]3CCc4c(F)c(N5CC6CCC(C5)N6)cc(F)c4C3)sc2n1` (single isomer, unassigned) [Example 22-6]: the IC50 is more than 2000 nM.

As to `Cc1ccc2c(N)c(C(=O)N[C@H]3COc4cc(N5CC6CCC(C5)N6)c(F)c(F)c4C3)sc2n1` [Example 13-3, N-((3R)-7-(3,8-diazabicyclo[3.2.1]octan-3-yl)-5,6-difluorochroman-3-yl)-3-amino-6-methylthieno[2,3-b]pyridine-2-carboxamide], the IC50 was more than 2000 nM.

In the case of `Cc1ccc2c(N)c(C(=O)N[C@@H]3CCc4cc(N5CCNCC5)cnc4C3)sc2n1` (single isomer, unassigned) [Example 15-1], the IC50 was more than 2000 nM.

Regarding `Cc1ccc2c(N)c(C(=O)N[C@@H]3CCc4cc(N5C6CNCC5C6)ccc4C3)sc2n1` (single isomer, unassigned) [Example 11-36], the IC50 is 200 to 2000 nM.
